Assay results: PubChem BioAssay AID2060614 (Molecular Pharmacology Branch, DTP, NCI, 2025)

Tested on: 598228-144-R-J1-PDC complex spheroids, viability
Experiment: Anticancer human tumor 598228-144-R-J1-PDC patient-derived serous endometrial adenocarcinoma cell line growth inhibition [CLK]
Settings: for IC50: curve of first compound; for viability, T/C: stronger effect = lower value
Outline: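 Patient-derived tumor cells grown as complex spheroids with HUVEC endothelial cells and mesenchymal stem cells, treated with drug combinations. Concentrations descend in half-log steps from near clinical Cmax, or from 10 microM if Cmax unknown.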

[1] = second compound 0.0316 µM, first compound 0.0316 µM
[2] = second compound 0.0316 µM, first compound 0.1 µM
[3] = second compound 0.0316 µM, first compound 0.316 µM
[4] = second compound 0.0316 µM, first compound 1 µM
[5] = second compound 0.0316 µM, first compound 3.16 µM
[6] = second compound 0.0316 µM, first compound 10 µM
[7] = second compound 0.1 µM, first compound 0.0316 µM
[8] = second compound 0.1 µM, first compound 0.1 µM
[9] = second compound 0.1 µM, first compound 0.316 µM
[10] = second compound 0.1 µM, first compound 1 µM
[11] = second compound 0.1 µM, first compound 3.16 µM
[12] = second compound 0.1 µM, first compound 10 µM
[13] = second compound 0.316 µM, first compound 0.0316 µM
[14] = second compound 0.316 µM, first compound 0.1 µM
[15] = second compound 0.316 µM, first compound 0.316 µM
[16] = second compound 0.316 µM, first compound 1 µM
[17] = second compound 0.316 µM, first compound 3.16 µM
[18] = second compound 0.316 µM, first compound 10 µM
[19] = second compound 1 µM, first compound 0.0316 µM
[20] = second compound 1 µM, first compound 0.1 µM
[21] = second compound 1 µM, first compound 0.316 µM
[22] = second compound 1 µM, first compound 1 µM
[23] = second compound 1 µM, first compound 3.16 µM
[24] = second compound 1 µM, first compound 10 µM
[25] = second compound 3.16 µM, first compound 0.0316 µM
[26] = second compound 3.16 µM, first compound 0.1 µM
[27] = second compound 3.16 µM, first compound 0.316 µM
[28] = second compound 3.16 µM, first compound 1 µM
[29] = second compound 3.16 µM, first compound 3.16 µM
[30] = second compound 3.16 µM, first compound 10 µM
[31] = second compound 10 µM, first compound 0.0316 µM
[32] = second compound 10 µM, first compound 0.1 µM
[33] = second compound 10 µM, first compound 0.316 µM
[34] = second compound 10 µM, first compound 1 µM
[35] = second compound 10 µM, first compound 3.16 µM
[36] = second compound 10 µM, first compound 10 µM
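Further: spheroids exposed to compounds for seven days before readout.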
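Wherever viability, T/C is given: 100% = DMSO vehicle control wells.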

Compound: Nc1ccccc1NC(=O)c1ccc(CNC(=O)OCc2cccnc2)cc1 + CNC(=O)c1ccc(Nc2nc(OC3CCCC3)c3c(-c4ccc5nc(C)oc5c4)c[nH]c3n2)c(OC)c1
- IC50 (second compound 0.0316 µM): 1890 nM
- IC50 (second compound 0.1 µM): 1930 nM
- IC50 (second compound 0.316 µM): 2000 nM
- IC50 (second compound 1 µM): 2200 nM
- IC50 (second compound 3.16 µM): 1330 nM
- IC50 (second compound 10 µM): 1020 nM
- viability, T/C [1]: 115%
- viability, T/C [2]: 105%
- viability, T/C [3]: 101%
- viability, T/C [4]: 83%
- viability, T/C [5]: 23.1%
- viability, T/C [6]: 12.2%
- viability, T/C [7]: 111%
- viability, T/C [8]: 97.8%
- viability, T/C [9]: 91.4%
- viability, T/C [10]: 79.7%
- viability, T/C [11]: 28.4%
- viability, T/C [12]: 7.48%
- viability, T/C [13]: 111%
- viability, T/C [14]: 105%
- viability, T/C [15]: 93%
- viability, T/C [16]: 66.6%
- viability, T/C [17]: 39%
- viability, T/C [18]: 4.74%
- viability, T/C [19]: 110%
- viability, T/C [20]: 81.9%
- viability, T/C [21]: 88.7%
- viability, T/C [22]: 65%
- viability, T/C [23]: 45.6%
- viability, T/C [24]: 6.12%
- viability, T/C [25]: 91.6%
- viability, T/C [26]: 86.5%
- viability, T/C [27]: 70.2%
- viability, T/C [28]: 55.1%
- viability, T/C [29]: 34.4%
- viability, T/C [30]: 4.38%
- viability, T/C [31]: 100%
- viability, T/C [32]: 88.9%
- viability, T/C [33]: 73.3%
- viability, T/C [34]: 50.5%
- viability, T/C [35]: 25.8%
- viability, T/C [36]: 4.15%

Compound: C=CC(=O)N1CCN(c2nc(=O)n(-c3c(C)ccnc3C(C)C)c3nc(-c4c(O)cccc4F)c(F)cc23)C(C)C1 (centres undefined) + CN1CCN(c2cc(C(=O)Nc3cc4cc(-c5cnn(C)c5)ccc4cn3)ccn2)CC1
- IC50 (second compound 0.0316 µM): > 10000 nM
- IC50 (second compound 0.1 µM): > 10000 nM
- IC50 (second compound 0.316 µM): < 31.6 nM
- IC50 (second compound 1 µM): < 31.6 nM
- IC50 (second compound 3.16 µM): < 31.6 nM
- IC50 (second compound 10 µM): < 31.6 nM
- viability, T/C [1]: 128%
- viability, T/C [2]: 130%
- viability, T/C [3]: 121%
- viability, T/C [4]: 138%
- viability, T/C [5]: 159%
- viability, T/C [6]: 128%
- viability, T/C [7]: 128%
- viability, T/C [8]: 122%
- viability, T/C [9]: 132%
- viability, T/C [10]: 160%
- viability, T/C [11]: 162%
- viability, T/C [12]: 121%
- viability, T/C [13]: 20.6%
- viability, T/C [14]: 21.9%
- viability, T/C [15]: 20.1%
- viability, T/C [16]: 24.2%
- viability, T/C [17]: 25.9%
- viability, T/C [18]: 18.4%
- viability, T/C [19]: 1.67%
- viability, T/C [20]: 1.68%
- viability, T/C [21]: 2.05%
- viability, T/C [22]: 2.47%
- viability, T/C [23]: 2.38%
- viability, T/C [24]: 1.47%
- viability, T/C [25]: 1.63%
- viability, T/C [26]: 3.15%
- viability, T/C [27]: 2.36%
- viability, T/C [28]: 2.16%
- viability, T/C [29]: 3.18%
- viability, T/C [30]: 4.16%
- viability, T/C [31]: 0.96%
- viability, T/C [32]: 1.09%
- viability, T/C [33]: 2.11%
- viability, T/C [34]: 1.48%
- viability, T/C [35]: 4.19%
- viability, T/C [36]: 1.94%
